Assays:
Type in all cases: cell-based
PRP platelets [1] = test: PRP platelets stored with Sul 136, aggregation after stimulation with collagen; conditions: 10 mM
Protocol: (§1) […] • The color and coagulation properties were visually analysed. • The thrombocyte cells that survived were counted and it was evaluated whether the thrombocytes were aggregated. • It was evaluated if the thrombocytes still were able to function after stimulation by the addition of ADP or under influence of collagen in a 96 well plate. • The adhesion was evaluated, meaning the ability of the platelets to bind collagen in a 6 well plate preincubated with collagen. • Via an ELISA assay, it was evaluated whether thromboxane was secreted from the platelets. Thromboxane facilitates aggregation and is produced by activated blood platelets.
(+means that the cells show aggregation, ++means strong aggregation, these platelets can thus be activated upon stimulation, −means no aggregation upon stimulation)

[2] = tested on: Human Embryo Kidney (HEK) 293 cells; test: Hypothermia/rewarming injury of HEK cells, trypan blue viability count
apherese blood platelets = test: Apheresis platelets stored with Sul 136, hematology analysis (platelet count, MPV); conditions: stored at 4° C. with Sul 136
From the text: Platelets were obtained via standard plateletpheresis procedures either on Haemonetics (donor 2611811 and donor 2611855) or on Cobe instruments (donor 2611770). According the protocol all units would be obtained with plateletpheresis procedure with the Cobe instrument, but from the three donations two were not passing the blood bank quality control criteria. Nevertheless, all platelet donations have a similar concentration and a similar platelet quality. In none of the platelet concentrates clots were found. The freshly harvested platelets are weighed on a balance and for sampling of platelet concentrate a small PVC bag was seal-docked to the main platelet concentrate bag. Standard homogenization of platelet concentrate has to be done with a roller before sampling. 300 μM suspension of Sul 136 is added with a procedure, which keeps the bag content sterile and the Sul 136 is kept in suspension by frequent whirling and stored at 37° C. before it is added to the freshly harvested platelets. The Sul 136 suspension is added to three platelet bags directly from the bag. After addition, the content of the platelet bag is gently mixed. After 2 hours the first sample is drawn with a seal-docked sample bag. The sample bag is disconnected by welding and from this sample bag the samples are taken for hematology analyzing, aggregometer tests and the flow-cytometry tests. Swirling in the bag is reported by experience of the laboratory worker in the standard format. Platelets without Sul 136 put on a flatbed shaker and stored at room temperature were used as control. Another control is stored at 4° C. Platelet samples in which Sul 136 is added, are stored without shaking in a refrigerator at 4° C.

PRP platelets [3] = test: PRP platelets stored with Sul 136, aggregation after stimulation with ADP; parameters: key to aggregation of the platelets after stimulation with ADP: +means that the cells show aggregation and can thus be activated upon stimulation; −means no aggregation upon stimulation
Protocol: as §1
(+means that the cells show aggregation and can thus be activated upon stimulation, −means no aggregation upon stimulation)

Structure (SMILES): Cc1c(C)c2c(c(C)c1O)CCC(C)(C(=O)N1CCN(CC(=O)O)CC1)O2 (racemic) [SUL - 136, 2-(4-(6-hydroxy-2,5,7,8-tetramethylchroman-2-carbonyl)piperazin-1-yl)acetic acid]
- activity after stimulation with collagen (PRP platelets [1]): showed still activity
- viability at 0.01 µM ([2]; Homo sapiens, HEK293, 24 h, 10 nM, 24 h at 4° C., 24 h rewarming, read-out: % cells that survived): 99.6%
- viability at 0.1 µM ([2]; Homo sapiens, HEK293, 24 h, 100 nM, 24 h at 4° C., 24 h rewarming, read-out: % cells that survived): 100%
- viability at 1 µM ([2]; Homo sapiens, HEK293, 24 h, 1 μM, 24 h at 4° C., 24 h rewarming, read-out: % cells that survived): 98.4%
- viability at 10 µM ([2]; Homo sapiens, HEK293, 24 h, 10 μM, 24 h at 4° C., 24 h rewarming, read-out: % cells that survived): 99.5%
- viability at 100 µM ([2]; Homo sapiens, HEK293, 24 h, 100 μM, 24 h at 4° C., 24 h rewarming, read-out: % cells that survived): 99.3%
- viability at 1000 µM ([2]; Homo sapiens, HEK293, 24 h, 1 mM, 24 h at 4° C., 24 h rewarming, read-out: % cells that survived): 100%
- % cells that survived, Mean ([2]; mean over the tested concentrations): 99%
- MPV (apherese blood platelets; Donor 2, Day 1): 10.1 fL
- Platelets/μl (apherese blood platelets; Donor 2, Day 1): 1,004,000 Platelets/μl
- MPV (apherese blood platelets; Donor 2, Day 2): 7.6 fL
- Platelets/μl (apherese blood platelets; Donor 2, Day 2): 1,272,000 Platelets/μl
- MPV (apherese blood platelets; Donor 2, Day 3): 7.8 fL
- Platelets/μl (apherese blood platelets; Donor 2, Day 3): 1,220,000 Platelets/μl
- MPV (apherese blood platelets; Donor 2, Day 5): 8.0 fL
- Platelets/μl (apherese blood platelets; Donor 2, Day 5): 1,252,000 Platelets/μl
- MPV (apherese blood platelets; Donor 2, Day 8): 8.0 fL
- Platelets/μl (apherese blood platelets; Donor 2, Day 8): 1,168,000 Platelets/μl
- MPV (apherese blood platelets; Donor 2, Day 10): 8.1 fL
- Platelets/μl (apherese blood platelets; Donor 2, Day 10): 1,104,000 Platelets/μl
- MPV (apherese blood platelets; Donor 2, Day 12): 8.6 fL
- Platelets/μl (apherese blood platelets; Donor 2, Day 12): 1,032,000 Platelets/μl
- MPV (apherese blood platelets; Donor 2, Day 19): 8.8 fL
- Platelets/μl (apherese blood platelets; Donor 2, Day 19): 860,000 Platelets/μl
- MPV (apherese blood platelets; Donor 3, Day 1): 10.3 fL
- Platelets/μl (apherese blood platelets; Donor 3, Day 1): 980,000 Platelets/μl
- MPV (apherese blood platelets; Donor 3, Day 2): 7.7 fL
- Platelets/μl (apherese blood platelets; Donor 3, Day 2): 1,188,000 Platelets/μl
- MPV (apherese blood platelets; Donor 3, Day 3): 7.7 fL
- Platelets/μl (apherese blood platelets; Donor 3, Day 3): 1,072,000 Platelets/μl
- MPV (apherese blood platelets; Donor 3, Day 5): 8.0 fL
- Platelets/μl (apherese blood platelets; Donor 3, Day 5): 1,068,000 Platelets/μl
- MPV (apherese blood platelets; Donor 3, Day 8): 8.3 fL
- Platelets/μl (apherese blood platelets; Donor 3, Day 8): 992,000 Platelets/μl
- MPV (apherese blood platelets; Donor 3, Day 10): 8.3 fL
- Platelets/μl (apherese blood platelets; Donor 3, Day 10): 892,000 Platelets/μl
- MPV (apherese blood platelets; Donor 3, Day 12): 9.0 fL
- Platelets/μl (apherese blood platelets; Donor 3, Day 12): 912,000 Platelets/μl
- MPV (apherese blood platelets; Donor 3, Day 19): 9.5 fL
- Platelets/μl (apherese blood platelets; Donor 3, Day 19): 692,000 Platelets/μl
- MPV (apherese blood platelets; donor 1, Day 1): 10.6 fL
- Platelets/μl (apherese blood platelets; donor 1, Day 1): 1,000,000 Platelets/μl
- MPV (apherese blood platelets; donor 1, Day 2): 9.5 fL
- Platelets/μl (apherese blood platelets; donor 1, Day 2): 1,192,000 Platelets/μl
- MPV (apherese blood platelets; donor 1, Day 3): 9.2 fL
- Platelets/μl (apherese blood platelets; donor 1, Day 3): 1,240,000 Platelets/μl
- MPV (apherese blood platelets; donor 1, Day 5): 9.1 fL
- Platelets/μl (apherese blood platelets; donor 1, Day 5): 1,232,000 Platelets/μl
- MPV (apherese blood platelets; donor 1, Day 8): 9.3 fL
- Platelets/μl (apherese blood platelets; donor 1, Day 8): 1,352,000 Platelets/μl
- MPV (apherese blood platelets; donor 1, Day 10): 9.6 fL
- Platelets/μl (apherese blood platelets; donor 1, Day 10): 1,228,000 Platelets/μl
- MPV (apherese blood platelets; donor 1, Day 12): 9.8 fL
- Platelets/μl (apherese blood platelets; donor 1, Day 12): 1,204,000 Platelets/μl
- MPV (apherese blood platelets; donor 1, Day 19): 8.8 fL
- Platelets/μl (apherese blood platelets; donor 1, Day 19): 1,068,000 Platelets/μl
- activity after stimulation with ADP (PRP platelets [3]; 10 mM): still showed activity
- aggregation of the platelets after stimulation with ADP (PRP platelets [3]; 10 min 0.001 mM, 0 h): +
- aggregation of the platelets after stimulation with ADP (PRP platelets [3]; 10 min 0.001 mM, 24 h): −
- aggregation of the platelets after stimulation with ADP (PRP platelets [3]; 10 min 0.001 mM, 48 h): −
- aggregation of the platelets after stimulation with ADP (PRP platelets [3]; 10 min 0.001 mM, 72 h): −
- aggregation of the platelets after stimulation with ADP (PRP platelets [3]; 10 min 0.001 mM, 216 h): −
- aggregation of the platelets after stimulation with ADP (PRP platelets [3]; 10 min 0.01 mM, 0 h): +
- aggregation of the platelets after stimulation with ADP (PRP platelets [3]; 10 min 0.01 mM, 24 h): −
- aggregation of the platelets after stimulation with ADP (PRP platelets [3]; 10 min 0.01 mM, 48 h): −
- aggregation of the platelets after stimulation with ADP (PRP platelets [3]; 10 min 0.01 mM, 72 h): −
- aggregation of the platelets after stimulation with ADP (PRP platelets [3]; 10 min 0.01 mM, 216 h): −
- aggregation of the platelets after stimulation with ADP (PRP platelets [3]; 10 min 0.1 mM, 0 h): +
- aggregation of the platelets after stimulation with ADP (PRP platelets [3]; 10 min 0.1 mM, 24 h): −
- aggregation of the platelets after stimulation with ADP (PRP platelets [3]; 10 min 0.1 mM, 48 h): −
- aggregation of the platelets after stimulation with ADP (PRP platelets [3]; 10 min 0.1 mM, 72 h): −
- aggregation of the platelets after stimulation with ADP (PRP platelets [3]; 10 min 0.1 mM, 216 h): −
- aggregation of the platelets after stimulation with ADP (PRP platelets [3]; 10 min 1 mM, 0 h): +
- aggregation of the platelets after stimulation with ADP (PRP platelets [3]; 10 min 1 mM, 24 h): −
- aggregation of the platelets after stimulation with ADP (PRP platelets [3]; 10 min 1 mM, 48 h): −
- aggregation of the platelets after stimulation with ADP (PRP platelets [3]; 10 min 1 mM, 72 h): −
- aggregation of the platelets after stimulation with ADP (PRP platelets [3]; 10 min 1 mM, 216 h): −
- aggregation of the platelets after stimulation with ADP (PRP platelets [3]; 10 min 10 mM, 0 h): +
- aggregation of the platelets after stimulation with ADP (PRP platelets [3]; 10 min 10 mM, 24 h): +
- aggregation of the platelets after stimulation with ADP (PRP platelets [3]; 10 min 10 mM, 48 h): +
- aggregation of the platelets after stimulation with ADP (PRP platelets [3]; 10 min 10 mM, 72 h): +
- aggregation of the platelets after stimulation with ADP (PRP platelets [3]; 10 min 10 mM, 216 h): +
- aggregation of the platelets after stimulation with ADP (PRP platelets [3]; 60 min 0.001 mM, 0 h): +
- aggregation of the platelets after stimulation with ADP (PRP platelets [3]; 60 min 0.001 mM, 24 h): −
- aggregation of the platelets after stimulation with ADP (PRP platelets [3]; 60 min 0.001 mM, 48 h): −
- aggregation of the platelets after stimulation with ADP (PRP platelets [3]; 60 min 0.001 mM, 72 h): −
- aggregation of the platelets after stimulation with ADP (PRP platelets [3]; 60 min 0.001 mM, 216 h): −
- aggregation of the platelets after stimulation with ADP (PRP platelets [3]; 60 min 0.01 mM, 0 h): +
- aggregation of the platelets after stimulation with ADP (PRP platelets [3]; 60 min 0.01 mM, 24 h): −
- aggregation of the platelets after stimulation with ADP (PRP platelets [3]; 60 min 0.01 mM, 48 h): −
- aggregation of the platelets after stimulation with ADP (PRP platelets [3]; 60 min 0.01 mM, 72 h): −
- aggregation of the platelets after stimulation with ADP (PRP platelets [3]; 60 min 0.01 mM, 216 h): −
- aggregation of the platelets after stimulation with ADP (PRP platelets [3]; 60 min 0.1 mM, 0 h): +
- aggregation of the platelets after stimulation with ADP (PRP platelets [3]; 60 min 0.1 mM, 24 h): −
- aggregation of the platelets after stimulation with ADP (PRP platelets [3]; 60 min 0.1 mM, 48 h): −
- aggregation of the platelets after stimulation with ADP (PRP platelets [3]; 60 min 0.1 mM, 72 h): −
- aggregation of the platelets after stimulation with ADP (PRP platelets [3]; 60 min 0.1 mM, 216 h): −
- aggregation of the platelets after stimulation with ADP (PRP platelets [3]; 60 min 1 mM, 0 h): +
- aggregation of the platelets after stimulation with ADP (PRP platelets [3]; 60 min 1 mM, 24 h): −
- aggregation of the platelets after stimulation with ADP (PRP platelets [3]; 60 min 1 mM, 48 h): −
- aggregation of the platelets after stimulation with ADP (PRP platelets [3]; 60 min 1 mM, 72 h): −
- aggregation of the platelets after stimulation with ADP (PRP platelets [3]; 60 min 1 mM, 216 h): −
- aggregation of the platelets after stimulation with ADP (PRP platelets [3]; 60 min 10 mM, 0 h): +
- aggregation of the platelets after stimulation with ADP (PRP platelets [3]; 60 min 10 mM, 24 h): +
- aggregation of the platelets after stimulation with ADP (PRP platelets [3]; 60 min 10 mM, 48 h): +
- aggregation of the platelets after stimulation with ADP (PRP platelets [3]; 60 min 10 mM, 72 h): +
- aggregation of the platelets after stimulation with ADP (PRP platelets [3]; 60 min 10 mM, 216 h): −
